Source: patent publication US20240173432A1, “Compositions and Methods for Treatment of Myotonic Dystrophy Type 1 with CRISPR/SluCas9” (Vertex Pharmaceuticals Incorporated, priority 2021, published 2024)

Tested on: CUG foci in primary DM1 patient myoblasts
Experiment: Dual-cut screening: FISH staining of CUG RNA foci
Type: cell-based, human
Settings: sgRNA pair; primary DM1 patient myoblasts; 3 μM DNA-PKi Compound 6 for 48 hours
Method: (§1) RNPs were assembled with recombinant SluCas9 protein and chemically modified sgRNAs at a ratio of 1:3 (protein:sgRNA). For SINGLE-cut screening, RNP complexes were assembled with 30 pmol of SluCas9 and 90 pmol of sgRNA in P5 Primary Cell Nucleofector Solution (Lonza). After incubation at room temperature for 20 minutes, 10 μL of RNP complex were mixed with two hundred thousand of primary myoblasts resuspended in 10 μL of P5 Nucleofector Solution. For DOUBLE-cut screening, RNP complexes were first assembled for individual sgRNAs with 20 pmol of SluCas9 protein and 60 pmol of sgRNAs in 5 μL of P5 Nucleofector Solution. After incubation at room temperature for 20 minutes, the two RNP complexes (one for upstream sgRNA and one for downstream sgRNA) were mixed at 1:1 ratio and then further mixed with two hundred thousand of primary myoblasts resuspended in 10 μL of P5 Nucleofector Solution.
(§2) The Nucleofector 96-well Shuttle System (Lonza) was used to deliver the SluCa9/sgRNA RNPs into primary DM1 patient myoblasts using the nucleofection program CM138. Following nucleofection, myoblasts from each well of nucleofection shuttle were split into six wells of the 96-well cell culture plate (Greiner, 655090) coated with matrigel. The first three wells were treated with DMSO for 48 hrs before changing to fresh myoblast growth medium, and the other three wells were treated with 3 μM of DNA-PKi Compound 6 for 48 hrs before changing to fresh myoblast growth medium. 72 hrs post nucleofection, two wells of DMSO-treated myoblasts and two wells of DNA-PKi-treated myoblasts from each nucleofection were harvested for genomic DNA extraction using the Kingfisher Flex purification system (Thermal Fisher), whereas one well of DMSO-treated myoblasts and one well of DNA-PKi-treated myoblasts were stained for RNA foci by FISH staining.
Primary myoblasts were fixed for 15 min with 4% paraformaldehyde (PFA) and washed five times with 1×PBS for 10 min each at room temperature. Before staining, cells were permeabilized with 0.5% triton X-100 in 1×PBS for 5 min at room temperature, and then washed with 30% formamide and 2× saline-sodium citrate (SSC) mixture for 10 min at room temperature. Cells were then stained with 1 ng/μL of Cy3-PNA(CAG)5 probe (PNA Bio, F5001) diluted in 30% formamide, 2×SSC, 2 μg/mL BSA, 66 μg/mL yeast tRNA, and 2 mM vanadyl complex for 15 min at 80° C. Following probe staining, cells were then washed in 30% formamide and 2×SSC mixture for 30 min at 42° C., then washed in 30% formamide and 2×SSC mixture for 30 min at 37° C., and then washed in 1×SSC solution for 10 min at room temperature, and finally washed in 1×PBS for 10 min at room temperature. Cells were next stained with anti-MBNL1 antibody (Santa Cruz, 3A4) diluted in 1% bovine serum albumin (BSA) for overnight at 4° C., and washed twice with 1×PBS for 10 min each at room temperature. Cells were then incubated with the secondary antibody goat anti-rabbit Alexa 647 (Thermo Fisher, A32728) diluted in 1% BSA for 1 hr at room temperature, and washed twice with 1×PBS for 10 min each at room temperature. Next, cells were stained with Hoechst solution (Thermo Fisher, H3569) at 0.1 mg/ml for 5 min, and washed once with 1×PBS for 5 min. PBS was aspirated and fresh 100 μl of fresh PBS is added to each well. High-throughput acquisition of images was completed with the ImageXpress Micro Confocal High-Content Imaging System (Molecular Devices). RNA foci quantifications were accomplished with a customized analysis module of the MetaXpress program (Molecular Devices).
To assess the efficiency of SluCas9 sgRNA pairs for inducing CTG repeat excision, Dual-cut screening was performed in which individual SluCas9 sgRNAs and recombinant SluCas9 protein were assembled into ribonucleoprotein (RNP) and delivered into primary DM1 patient myoblasts. Nucleofected myoblasts were treated with either DMSO (vehicle) or 3 μM of DNA-dependent Protein Kinase Inhibitor (DNA-PKi) Compound 6 for 48 hours. […]

| Substance | % of CUG foci free nuclei (DNA-PKi) |
| --- | --- |
| SluU06 + SluD06 (guide 1 TGTCTTCGACTCCGGGGCCCCG; guide 2 CCAGGCTGAGGCCCTGACGTGG; guide RNA; listed as DNA, chemistry not fully specified) | 87.02% |
| SluU06 + SluD14 (guide 1 TGTCTTCGACTCCGGGGCCCCG; guide 2 ATGGGCAAACTGCAGGCCTGGG; guide RNA; listed as DNA, chemistry not fully specified) | 83.37% |
| SluU06 + SluD18 (guide 1 TGTCTTCGACTCCGGGGCCCCG; guide 2 TGGAGGATGGAACACGGACGGC; guide RNA; listed as DNA, chemistry not fully specified) | 87.79% |
| SluU06 + SluD32 (guide 1 TGTCTTCGACTCCGGGGCCCCG; guide 2 CTTGTGCATGACGCCCTGCTCT; guide RNA; listed as DNA, chemistry not fully specified) | 89.84% |
| SluU06 + SluD34 (guide 1 TGTCTTCGACTCCGGGGCCCCG; guide 2 CGCGCCAGACGCTCCCCAGAGC; guide RNA; listed as DNA, chemistry not fully specified) | 90.66% |
| SluU06 + SluD48 (guide 1 TGTCTTCGACTCCGGGGCCCCG; guide 2 GAGAGCAGCGCAAGTGAGGAGG; guide RNA; listed as DNA, chemistry not fully specified) | 89.46% |
| SluU06 + SluD56 (guide 1 TGTCTTCGACTCCGGGGCCCCG; guide 2 CCAGCCGGCTCCGCCCGCTTCG; guide RNA; listed as DNA, chemistry not fully specified) | 85.13% |

Same assay, conditions: sgRNA pair; primary DM1 patient myoblasts; vehicle (DMSO)

| Substance | % of CUG foci free nuclei (Vehicle) |
| --- | --- |
| SluU06 + SluD06 (guide 1 TGTCTTCGACTCCGGGGCCCCG; guide 2 CCAGGCTGAGGCCCTGACGTGG; guide RNA; listed as DNA, chemistry not fully specified) | 62.81% |
| SluU06 + SluD14 (guide 1 TGTCTTCGACTCCGGGGCCCCG; guide 2 ATGGGCAAACTGCAGGCCTGGG; guide RNA; listed as DNA, chemistry not fully specified) | 66.72% |
| SluU06 + SluD18 (guide 1 TGTCTTCGACTCCGGGGCCCCG; guide 2 TGGAGGATGGAACACGGACGGC; guide RNA; listed as DNA, chemistry not fully specified) | 69.25% |
| SluU06 + SluD32 (guide 1 TGTCTTCGACTCCGGGGCCCCG; guide 2 CTTGTGCATGACGCCCTGCTCT; guide RNA; listed as DNA, chemistry not fully specified) | 67.77% |
| SluU06 + SluD34 (guide 1 TGTCTTCGACTCCGGGGCCCCG; guide 2 CGCGCCAGACGCTCCCCAGAGC; guide RNA; listed as DNA, chemistry not fully specified) | 78.56% |
| SluU06 + SluD48 (guide 1 TGTCTTCGACTCCGGGGCCCCG; guide 2 GAGAGCAGCGCAAGTGAGGAGG; guide RNA; listed as DNA, chemistry not fully specified) | 66.88% |
| SluU06 + SluD56 (guide 1 TGTCTTCGACTCCGGGGCCCCG; guide 2 CCAGCCGGCTCCGCCCGCTTCG; guide RNA; listed as DNA, chemistry not fully specified) | 47.08% |

Tested on: CTG repeat in the 3′ UTR of human DMPK gene
Experiment: Dual-cut screening: CTG repeat excision efficiency by loss-of-signal ddPCR
Type: cell-based
Settings: sgRNA pair; primary DM1 patient myoblasts; 3 μM DNA-PKi Compound 6 for 48 hours
Method: as §1, §2
The primers and probes of ddPCR are designed using the online primer design software Primer3Plus (http://www.bioinformatics.nl/cgi-bin/primer3plus/primer3plus.cgi). In some embodiments, two target primers/probe sets were used to detect CTG repeat excision, and a reference primers/probe set were used to amplify a region located in Exon 1 of human DMPK gene and to serve as a reference control for the target sets. The 24 μL of ddPCR reaction consists of 12 μL of Supermix for Probes (no dUTP) (Bio-Rad Laboratories), 1 μL of Reference primers mix (21.6 μM), 1 μL of Reference probe (6 μM), 1 μL of Target primers mix (21.6 μM), 1 μL of Target probe (6 μM), and 8 μL of sample genomic DNA. Droplets were generated using probe oil with the QX200 Droplet Generator (Bio-Rad Laboratories). Droplets were transferred to a 96-well PCR plate, sealed and cycled in a C1000 deep well Thermocycler (Bio-Rad Laboratories) under the following cycling protocol: 1 cycle at 95° C. for 10 min; 40 cycles of 94° C. for 30 see, and 58° C. for 1 min; 1 cycle at 98° C. for 10 min (for enzyme inactivation). The cycled plate was then transferred and read in the FAM and HEX channels using the Bio-Rad QX200 Droplet Reader (Bio-Rad Laboratories). ddPCR analysis is performed with the Bio-Rad QuantaSoft Pro Software.
To assess the efficiency of SluCas9 sgRNA pairs for inducing CTG repeat excision, Dual-cut screening was performed in which individual SluCas9 sgRNAs and recombinant SluCas9 protein were assembled into ribonucleoprotein (RNP) and delivered into primary DM1 patient myoblasts. Nucleofected myoblasts were treated with either DMSO (vehicle) or 3 μM of DNA-dependent Protein Kinase Inhibitor (DNA-PKi) Compound 6 for 48 hours. 72 hours post-nucleofection, myoblasts were subjected to either genomic DNA isolation or RNA foci staining by fluorescence in situ hybridization (FISH).
CRISPR repeat excision efficiency was assessed for each of the 88 pairs (FIG. 8A-B and Table 5). CTG repeat excision efficiency percentages are shown for vehicle (DMSO; white bars) and with DNA-PKi (black bars) (FIG. 8B and Table 5).

| Substance | Excision efficiency (by ddPCR) |
| --- | --- |
| SluU06 + SluD06 (guide 1 TGTCTTCGACTCCGGGGCCCCG; guide 2 CCAGGCTGAGGCCCTGACGTGG; guide RNA; listed as DNA, chemistry not fully specified) | 57.64 |
| SluU06 + SluD14 (guide 1 TGTCTTCGACTCCGGGGCCCCG; guide 2 ATGGGCAAACTGCAGGCCTGGG; guide RNA; listed as DNA, chemistry not fully specified) | 65.02 |
| SluU06 + SluD18 (guide 1 TGTCTTCGACTCCGGGGCCCCG; guide 2 TGGAGGATGGAACACGGACGGC; guide RNA; listed as DNA, chemistry not fully specified) | 64.53 |
| SluU06 + SluD32 (guide 1 TGTCTTCGACTCCGGGGCCCCG; guide 2 CTTGTGCATGACGCCCTGCTCT; guide RNA; listed as DNA, chemistry not fully specified) | 73.51 |
| SluU06 + SluD34 (guide 1 TGTCTTCGACTCCGGGGCCCCG; guide 2 CGCGCCAGACGCTCCCCAGAGC; guide RNA; listed as DNA, chemistry not fully specified) | 67.57 |
| SluU06 + SluD48 (guide 1 TGTCTTCGACTCCGGGGCCCCG; guide 2 GAGAGCAGCGCAAGTGAGGAGG; guide RNA; listed as DNA, chemistry not fully specified) | 63.33 |
| SluU06 + SluD56 (guide 1 TGTCTTCGACTCCGGGGCCCCG; guide 2 CCAGCCGGCTCCGCCCGCTTCG; guide RNA; listed as DNA, chemistry not fully specified) | 54.91 |

Same assay, conditions: sgRNA pair; primary DM1 patient myoblasts; vehicle (DMSO)

| Substance | Excision efficiency by ddPCR (Vehicle) |
| --- | --- |
| SluU06 + SluD06 (guide 1 TGTCTTCGACTCCGGGGCCCCG; guide 2 CCAGGCTGAGGCCCTGACGTGG; guide RNA; listed as DNA, chemistry not fully specified) | 42.65 |
| SluU06 + SluD14 (guide 1 TGTCTTCGACTCCGGGGCCCCG; guide 2 ATGGGCAAACTGCAGGCCTGGG; guide RNA; listed as DNA, chemistry not fully specified) | 48.08 |
| SluU06 + SluD18 (guide 1 TGTCTTCGACTCCGGGGCCCCG; guide 2 TGGAGGATGGAACACGGACGGC; guide RNA; listed as DNA, chemistry not fully specified) | 45.61 |
| SluU06 + SluD32 (guide 1 TGTCTTCGACTCCGGGGCCCCG; guide 2 CTTGTGCATGACGCCCTGCTCT; guide RNA; listed as DNA, chemistry not fully specified) | 50.63 |
| SluU06 + SluD34 (guide 1 TGTCTTCGACTCCGGGGCCCCG; guide 2 CGCGCCAGACGCTCCCCAGAGC; guide RNA; listed as DNA, chemistry not fully specified) | 51.37 |
| SluU06 + SluD48 (guide 1 TGTCTTCGACTCCGGGGCCCCG; guide 2 GAGAGCAGCGCAAGTGAGGAGG; guide RNA; listed as DNA, chemistry not fully specified) | 45.89 |
| SluU06 + SluD56 (guide 1 TGTCTTCGACTCCGGGGCCCCG; guide 2 CCAGCCGGCTCCGCCCGCTTCG; guide RNA; listed as DNA, chemistry not fully specified) | 31.65 |
